Assay results published in publication PMC10705938, “Discovery of Anti-Coronavirus Cinnamoyl Triterpenoids Isolated from Hippophae rhamnoides during a Screening of Halophytes from the North Sea and Channel Coasts in Northern France” (International Journal of Molecular Sciences, 2023).
In brackets after ≈: the same amount, converted by molar mass. Like-named read-outs stand apart in the source and are kept apart here.

Legend:
Staphylococcus capitis = test system: Staphylococcus capitis; set-up: method as in PMID 11199141; conditions: cited from earlier work
Candida albicans = test system: Candida albicans; set-up: method as in PMID 11199141; conditions: cited from earlier work
HCoV-229E [1] = experiment: HCoV-229E-Luc infection assay (luciferase) in Huh-7 cells; format: cell-based; conditions: Human coronavirus 229E, purified compounds
HCoV-229E [2] = experiment: HCoV-229E-Luc infection assay (luciferase) in Huh-7/TMPRSS2 cells; format: cell-based; conditions: Human coronavirus 229E, purified compounds
in vitro = conditions: human, Huh-7 cells
Description: The cytotoxicity of 25 crude methanolic extracts was tested on Huh-7 cells using an [3-(4,5-dimethylthiazol-2-yl)-5-(3-carboxymethoxyphenyl)-2-(4-sulfophenyl)-2H-tetrazolium]- based (MTS) viability assay. Huh-7 cells were treated with two different concentrations of the crude methanolic extracts (25 and 100 μg/mL) for 24 h. Non-treated control cells were incubated with 0.1% dimethyl sulfoxide (DMSO) in the media.
Huh-7 cells and Vero-81 cells were seeded in 96-well plates and incubated with 100 μL of culture medium containing increasing concentrations of our compounds for 24 h. An MTS based viability assay (CellTiter 96 aqueous nonradioactive cell proliferation assay, Promega, Madison WI, USA) was performed, as recommended by the manufacturer. The absorbance of formazan at 490 nm was detected using ELx808 plate reader (BioTek Instruments Inc., Winooski, VT, USA). Each measurement was performed in triplicate.

SARS-CoV-2 = experiment: microbe, parasite or virus in culture; format: cell-based; conditions: read-out: inhibition of SARS-CoV-2 (N protein levels)
SARS-CoV-2 Mpro enzyme = test system: SARS-CoV-2 Mpro enzyme; set-up: method as in PMID 35066300; conditions: cited from earlier work
hepatitis C virus = test system: hepatitis C virus; set-up: method as in PMID 30842319; conditions: cited from earlier work
[3] = test system: SARS-CoV-2 spike pseudotyped virus; conditions: in vitro; cited from earlier work

Structure (SMILES) | IC50 (HCoV-229E [1]) | IC50 (HCoV-229E [2]) | CC50 at 24 h (in vitro) | also measured
CC1(C)CC[C@]2(C(=O)O)CC[C@]3(C)C(=CC[C@@H]4[C@@]5(C)C[C@@H](O)[C@H](OC(=O)/C=C/c6ccc(O)cc6)C(C)(C)[C@@H]5CC[C@]43C)[C@@H]2C1 (relative stereo) [3-β -O-(trans-p-coumaroyl)maslinic acid] |  |  |  | minimum inhibitory concentration (Staphylococcus capitis): 12.5 µg/mL (≈ 20.2 µM); minimum inhibitory concentration (Candida albicans): 12.5 µg/mL (≈ 20.2 µM)
CC1(C)CC[C@]2(C(=O)O)CC[C@]3(C)C(=CC[C@@H]4[C@@]5(C)C[C@@H](OC(=O)/C=C/c6ccc(O)cc6)[C@H](O)C(C)(C)[C@@H]5CC[C@]43C)[C@@H]2C1 [F2-1, 2-O-trans-p-coumaroyl-maslinic acid] | 8.6 µM | 9.1 µM | 39.9 µM | 
C[C@H]1[C@H](C)CC[C@]2(C(=O)O)CC[C@]3(C)C(=CC[C@@H]4[C@@]5(C)C[C@@H](OC(=O)/C=C/c6ccc(O)cc6)[C@H](O)C(C)(C)[C@@H]5CC[C@]43C)[C@H]12 [F2-2, 3β-hydroxy-2α-trans-p-coumaryloxy-urs-12-en-28-oic acid] | 12 µM | 11.4 µM | 44.4 µM | 
C[C@H]1[C@H](C)CC[C@]2(C(=O)O)CC[C@]3(C)C(=CC[C@@H]4[C@@]5(C)C[C@@H](OC(=O)/C=C\c6ccc(O)cc6)[C@H](O)C(C)(C)[C@@H]5CC[C@]43C)[C@H]12 [F2-3, 3β-hydroxy-2α-cis-p-coumaryloxy-urs-12-en-28-oic acid] | 14.5 µM | 14.1 µM | 52.1 µM | 
CC1(C)CC[C@]2(C(=O)O)CC[C@]3(C)C(=CC[C@@H]4[C@@]5(C)CC[C@H](OC(=O)/C=C/c6ccc(O)c(O)c6)C(C)(C)[C@@H]5CC[C@]43C)[C@@H]2C1 [F4-2, 3-O-trans-caffeoyl-oleanolic acid] | 11.6 µM | 11.5 µM | 81.4 µM | inhibition at 50 µM (SARS-CoV-2; Severe acute respiratory syndrome coronavirus 2, 50 µM, Vero-81, 16 h, Western blot): 54%
CC1(C)CC[C@]2(C(=O)O)CC[C@]3(C)C(=CC[C@@H]4[C@@]5(C)CC[C@H](OC(=O)/C=C/c6ccc(O)cc6)C(C)(C)[C@@H]5CC[C@]43C)[C@@H]2C1 [F7-1, 3-O-trans-p-coumaroyl-oleanolic acid] | 11.4 µM | 10.7 µM | 39.3 µM | inhibition at 50 µM (SARS-CoV-2; Severe acute respiratory syndrome coronavirus 2, 16 h): 55.5%
C[C@H]1[C@H](C)CC[C@]2(C(=O)O)CC[C@]3(C)C(=CC[C@@H]4[C@@]5(C)CC[C@H](O)C(C)(C)[C@@H]5CC[C@]43C)[C@H]12 [UA, ursolic acid] |  |  |  | inhibition of SARS-CoV-2 Mpro enzyme activity (SARS-CoV-2 Mpro enzyme): successfully inhibited its activity
C=Cc1c(C)c(O)cc2ccc3c(C)c(O)ccc3c12 [dehydrojuncusol] |  |  |  | inhibition of hepatitis C virus replication (hepatitis C virus): inhibitor of hepatitis C virus replication
COc1cc(-c2oc3cc(O)cc(O)c3c(=O)c2O)ccc1O [isorhamnetin] |  |  |  | antiviral activity against SARS-CoV-2 spike pseudotyped virus [3]: displayed antiviral activity
